Here are results for ten molecules from US20090170827A1, “Acid Addition Salt of Dihydropyridine Derivative” (Daiichi Sankyo Company , Limited, priority 2005, published 2009).

This data set is described as follows: Thermal stability test. Format: physicochemical. As for the experimental part:
The test compound was placed in a glass bottle and allowed to stand under the following conditions (1) and (2). After a certain period of time had elapsed, the residual rate of the active ingredient [compound (I)] in the test compound was measured by high performance liquid chromatography.
(1): Closed state, 60° C.;
(2): Non-closed state, 40° C., humidity 75%.
The measurement conditions in high performance liquid chromatography are as follows.
Column: L-column ODS [4.6 mm×250 mm, manufactured by Chemicals Evaluation and Research Institute, Japan]
Mobile layer: acetonitrile/22 mM potassium dihydrogenphosphate buffer/methanol=455/350/195 (V/V/V) (adjusted to pH 5.5 by phosphoric acid)
Column temperature: 40° C.
Detection wavelength: 220 nm
The residual rate (%) was calculated by the following formula.
The residual rate (%)=[1−(sum of peak area percentages of impurities and decomposed products)]×100

Where [1] appears, read: Condition (1): closed state, 60° C.
The mark [2] stands for this setting: Condition (1): closed state, 60° C., time 0 month.
Where [3] appears, read: Condition (1): closed state, 60° C., time 1 month.
[4] abbreviates: Condition (1): closed state, 60° C., time 3 months.
The mark [5] stands for this setting: Condition (2): non-closed state, 40° C., humidity 75%.
Setting [6] is: Condition (2): non-closed state, 40° C., humidity 75%, time 0 month.
[7] abbreviates: Condition (2): non-closed state, 40° C., humidity 75%, time 1 month.
The mark [8] stands for this setting: Condition (2): non-closed state, 40° C., humidity 75%, time 3 months.
The mark [9] stands for this setting: Condition (1): closed state, 60° C., time 6 months.
The mark [10] stands for this setting: Condition (1): closed state, 60° C., time 0 month, dihydrochloride.
[11] abbreviates: Condition (1): closed state, 60° C., time 1 month, dihydrochloride.
Setting [12] is: Condition (2): non-closed state, 40° C., humidity 75%, dihydrochloride.
Setting [13] is: Condition (2): non-closed state, 40° C., humidity 75%, time 0 month, dihydrochloride.
The mark [14] stands for this setting: Condition (2): non-closed state, 40° C., humidity 75%, time 6 months.

In the case of “2-Amino-1,4-dihydro-6-methyl-4-(3-nitrophenyl)-3,5-pyridinedicarboxylic Acid 3-(1-diphenylmethylazetidin-3-yl)ester 5-isopropyl Ester Hemifumarate [Comparative Example 4, reference compound]”, the “stability (in words)” value is listed as “did not have high stability” under setting [1] and “low stability” under setting [5]. Moreover, the “Residual rate of Compound (I)” value is reported as 99.7% under setting [2]; 96.7% under setting [3]; 93.0% under setting [4]; 99.7% under setting [6]; 94.8% under setting [7]; 91.3% under setting [8].

Take “2-Amino-1,4-dihydro-6-methyl-4-(3-nitrophenyl)-3,5-pyridinedicarboxylic acid 3-(1-diphenylmethylazetidin-3-yl)ester 5-isopropyl Ester Dinaphthalenesulfonate [Example 7]”: under setting [1], the “stability (in words)” value is “equal in stability”. Also, the “Residual rate of Compound (I)” value under setting [2] is 99.4%, the “Residual rate of Compound (I)” value under setting [3] came out at 97.3%, the “Residual rate of Compound (I)” value under setting [4] amounted to 95.4% and the “Residual rate of Compound (I)” value under setting [9] worked out at 93.0%.

For the molecule `CC1=C(C(=O)OC(C)C)C(c2cccc([N+](=O)[O-])c2)C(C(=O)OC2CN(C(c3ccccc3)c3ccccc3)C2)=C(N)N1.O=C(O)CC(O)(CC(=O)O)C(=O)O` (single isomer, unassigned) [Example 2, 2-Amino-1,4-dihydro-6-methyl-4-(3-nitrophenyl)-3,5-pyridinedicarboxylic acid 3-(1-diphenylmethylazetidin-3-yl)ester 5-isopropyl ester monocitrate], the “stability (in words)” value under setting [1] is “equal in stability”. Moreover, the “Residual rate of Compound (I)” value turned out to be 98.8% under setting [2], 96.9% under setting [3] and 95.8% under setting [4].

As for `CC1=C(C(=O)OC(C)C)C(c2cccc([N+](=O)[O-])c2)C(C(=O)OC2CN(C(c3ccccc3)c3ccccc3)C2)=C(N)N1.Cl.Cl` (centres unmarked) [Comparative Example 1, 2-Amino-1,4-dihydro-6-methyl-4-(3-nitrophenyl)-3,5-pyridinedicarboxylic acid 3-(1-diphenylmethylazetidin-3-yl)ester 5-isopropyl ester dihydrochloride, reference compound], the “stability (in words)” value runs as follows: under setting [1], “extremely low stability”; under setting [12], “low stability”. In addition, the “Residual rate of Compound (I)” value runs as follows: under setting [10], 98.1%; under setting [11], 60.0%; under setting [4], 58.9%; under setting [13], 98.1%; under setting [7], 62.9%; under setting [8], 59.0%.

Consider `CC1=C(C(=O)OC(C)C)C(c2cccc([N+](=O)[O-])c2)C(C(=O)OC2CN(C(c3ccccc3)c3ccccc3)C2)=C(N)N1.Cl.Cl` (centres unmarked) [Comparative Example 2, 2-Amino-1,4-dihydro-6-methyl-4-(3-nitrophenyl)-3,5-pyridinedicarboxylic Acid 3-(1-diphenylmethylazetidin-3-yl)ester 5-isopropyl Ester Dihydrochloride, reference compound], for which the “stability (in words)” value is on record as “extremely low stability” under setting [1] and “extremely low stability” under setting [12]. The “Residual rate of Compound (I)” value under setting [10] is 97.3%; the “Residual rate of Compound (I)” value under setting [11] was 10.3%; the “Residual rate of Compound (I)” value under setting [13] came out at 97.3%; the “Residual rate of Compound (I)” value (Condition (2): non-closed state, 40° C., humidity 75%, time 1 month, Dihydrochloride) amounted to 11.3%.

Consider `CC1=C(C(=O)OC(C)C)C(c2cccc([N+](=O)[O-])c2)C(C(=O)OC2CN(C(c3ccccc3)c3ccccc3)C2)=C(N)N1.O=S(=O)(O)O` (centres unmarked) [Comparative Example 3, 2-Amino-1,4-dihydro-6-methyl-4-(3-nitrophenyl)-3,5-pyridinedicarboxylic Acid 3-(1-diphenylmethylazetidin-3-yl)ester 5-isopropyl Ester Monosulfate, reference compound], for which the “stability (in words)” value is, setting by setting: under setting [1], “did not have high stability”; under setting [5], “low stability”. For the same molecule, the “Residual rate of Compound (I)” value reads like this: under setting [2], 99.5%; under setting [3], 96.9%; under setting [4], 94.9%; under setting [9], 92.8%; under setting [6], 99.5%; under setting [7], 93.9%. The “Residual rate of Compound (I)” value by setting is: under setting [8], 88.9%; under setting [14], 84.8%.

Consider `CC1=C(C(=O)OC(C)C)C(c2cccc([N+](=O)[O-])c2)C(C(=O)OC2CN(C(c3ccccc3)c3ccccc3)C2)=C(N)N1.CS(=O)(=O)O.CS(=O)(=O)O` (centres unmarked) [Example 3, 2-Amino-1,4-dihydro-6-methyl-4-(3-nitrophenyl)-3,5-pyridinedicarboxylic acid 3-(1-diphenylmethylazetidin-3-yl)ester 5-isopropyl ester dimethanesulfonate], for which the “Residual rate of Compound (I)” value turned out to be 99.6% under setting [2], 98.7% under setting [3] and 98.5% under setting [4].

Consider `CC1=C(C(=O)OC(C)C)C(c2cccc([N+](=O)[O-])c2)C(C(=O)OC2CN(C(c3ccccc3)c3ccccc3)C2)=C(N)N1.CS(=O)(=O)O.CS(=O)(=O)O.CS(=O)(=O)O` (centres unmarked) [Example 4, 2-Amino-1,4-dihydro-6-methyl-4-(3-nitrophenyl)-3,5-pyridinedicarboxylic acid 3-(1-diphenylmethylazetidin-3-yl)ester 5-isopropyl ester trimethanesulfonate], for which the “Residual rate of Compound (I)” value is, setting by setting: under setting [2], 99.5%; under setting [3], 98.6%; under setting [4], 98.1%; under setting [6], 99.5%; under setting [7], 99.1%; under setting [8], 98.8%. Also, the “stability (in words)” value under setting [5] was “excellent stability”.

For the molecule `CC1=C(C(=O)OC(C)C)C(c2cccc([N+](=O)[O-])c2)C(C(=O)OC2CN(C(c3ccccc3)c3ccccc3)C2)=C(N)N1.O=S(=O)(O)c1ccccc1.O=S(=O)(O)c1ccccc1` (centres unmarked) [Example 5, 2-Amino-1,4-dihydro-6-methyl-4-(3-nitrophenyl)-3,5-pyridinedicarboxylic acid 3-(1-diphenylmethylazetidin-3-yl)ester 5-isopropyl ester dibenzenesulfonate], the “stability (in words)” value under setting [1] was “equal in stability”. For the same molecule, the “Residual rate of Compound (I)” value by setting is: under setting [2], 99.7%; under setting [3], 98.6%; under setting [4], 96.5%; under setting [9], 93.3%.

As for `CC1=C(C(=O)OC(C)C)C(c2cccc([N+](=O)[O-])c2)C(C(=O)OC2CN(C(c3ccccc3)c3ccccc3)C2)=C(N)N1.Cc1ccc(S(=O)(=O)O)cc1.Cc1ccc(S(=O)(=O)O)cc1` (centres unmarked) [Example 6, 2-Amino-1,4-dihydro-6-methyl-4-(3-nitrophenyl)-3,5-pyridinedicarboxylic acid 3-(1-diphenylmethylazetidin-3-yl)ester 5-isopropyl ester di-p-toluenesulfonate], the “Residual rate of Compound (I)” value came out at 99.6% under setting [2]; 98.8% under setting [3]; 98.3% under setting [4]; 97.3% under setting [9]; 99.6% under setting [6]; 97.5% under setting [7]. Also, the “Residual rate of Compound (I)” value runs as follows: under setting [8], 96.4%; under setting [14], 94.5%. In addition, the “stability (in words)” value under setting [5] was “excellent stability”.
